Assay results reported in patent US8815909B2, “Diaminocyclohexane compounds and uses thereof” (Bristol-Myers Squibb Company, priority 2011, dated 2014).
Where two headings read alike, the source gives them in different places.

Biological target: T1, human Y4 receptor (Homo sapiens, UniProt P50391)
T1 construct: expressed in transfected cells
Test: NPY4 cAMP HTRF Agonist Assay (inhibitory cAMP assay, Gi activation by Y4 agonism)
Assay type: cell-based
Details: read-out: hY4 CAMP EC50
Summary of the method: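 CHO cells stably expressing human Y4, 5000/well, exposed to compound with forskolin and IBMX in PBS for 30 min at room temperature. Gi-mediated inhibition of cAMP then measured by HTRF after 1 h with d2-conjugate and anti-cAMP cryptate.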

[1] = second TABLE 1, R2 is Phenyl-CF3

T1 sequence (P50391 whole entry): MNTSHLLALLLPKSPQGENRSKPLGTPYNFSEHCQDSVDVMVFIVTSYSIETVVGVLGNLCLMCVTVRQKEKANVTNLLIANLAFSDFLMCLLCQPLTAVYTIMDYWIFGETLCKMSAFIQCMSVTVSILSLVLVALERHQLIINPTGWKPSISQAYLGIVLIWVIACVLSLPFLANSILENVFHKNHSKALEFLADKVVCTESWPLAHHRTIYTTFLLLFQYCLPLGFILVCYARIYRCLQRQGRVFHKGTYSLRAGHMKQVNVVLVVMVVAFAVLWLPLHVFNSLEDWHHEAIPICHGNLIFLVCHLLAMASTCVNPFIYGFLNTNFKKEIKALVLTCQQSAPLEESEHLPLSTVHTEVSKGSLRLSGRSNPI

CC(=O)NCc1cccc(-c2ccnc(N[C@@H]3CCCC[C@H]3N[C@H]3CCCN(c4ccc(C(F)(F)F)cc4)C3)c2)c1 [Example 140]
EC50 [1]: 1 nM

CCCCNC(=O)c1cccc(-c2ccnc(N[C@@H]3CCCC[C@H]3N[C@H]3CCCN(c4ccc(C(F)(F)F)cc4)C3)c2)c1 [Example 141]
EC50 [1]: 227 nM

CCNCc1cccc(-c2ccnc(N[C@@H]3CCCC[C@H]3N[C@H]3CCCN(c4ccc(C(F)(F)F)cc4)C3)c2)c1 [Example 142]
EC50 [1]: 58 nM

CC(C)NCc1cccc(-c2ccnc(N[C@@H]3CCCC[C@H]3N[C@H]3CCCN(c4ccc(C(F)(F)F)cc4)C3)c2)c1 [Example 143]
EC50 [1]: 107 nM

CNCc1cccc(-c2ccnc(N[C@@H]3CCCC[C@H]3N[C@H]3CCCN(c4ccc(C(F)(F)F)cc4)C3)c2)c1 [Example 144]
EC50 [1]: 26 nM

FC(F)(F)c1ccc(N2CCC[C@H](N[C@@H]3CCCC[C@H]3Nc3cc(-c4cccc5c4CCNC5)ccn3)C2)cc1 [Example 145]
EC50 [1]: 905 nM

FC(F)(F)c1ccc(N2CCC[C@H](N[C@@H]3CCCC[C@H]3Nc3cc(-c4ccc5c(c4)CNCC5)ccn3)C2)cc1 [Example 146]
EC50 [1]: 726 nM

CC(C)NC(=O)c1cccc(-c2ccnc(N[C@@H]3CCCC[C@H]3N[C@H]3CCCN(c4ccc(C(F)(F)F)cc4)C3)c2)c1 [Example 147]
EC50 [1]: 20 nM

CC(C)CNC(=O)c1cccc(-c2ccnc(N[C@@H]3CCCC[C@H]3N[C@H]3CCCN(c4ccc(C(F)(F)F)cc4)C3)c2)c1 [Example 148]
EC50 [1]: 205 nM

OCCc1cccc(-c2ccnc(N[C@@H]3CCCC[C@H]3N[C@H]3CCCN(c4ccc(C(F)(F)F)cc4)C3)c2)c1 [Example 149]
EC50 [1]: 30 nM

O=C(NC1CCCC1)c1cccc(-c2ccnc(N[C@@H]3CCCC[C@H]3N[C@H]3CCCN(c4ccc(C(F)(F)F)cc4)C3)c2)c1 [Example 150]
EC50 [1]: 192 nM

OC1(c2cccc(-c3ccnc(N[C@@H]4CCCC[C@H]4N[C@H]4CCCN(c5ccc(C(F)(F)F)cc5)C4)c3)c2)CC1 [Example 151]
EC50 [1]: 292 nM

OCCc1ccc(-c2ccnc(N[C@@H]3CCCC[C@H]3N[C@H]3CCCN(c4ccc(C(F)(F)F)cc4)C3)c2)cc1 [Example 152]
EC50 [1]: 508 nM

OCCCc1cccc(-c2ccnc(N[C@@H]3CCCC[C@H]3N[C@H]3CCCN(c4ccc(C(F)(F)F)cc4)C3)c2)c1 [Example 153]
EC50 [1]: 31 nM

OC1(c2cccc(-c3cnc(N[C@@H]4CCCC[C@H]4N[C@H]4CCCN(c5ccc(C(F)(F)F)cc5)C4)o3)c2)CC1 [Example 154]
EC50 [1]: 36 nM

CC(C)(C)c1cccc(-c2ccnc(N[C@@H]3CCCC[C@H]3N[C@H]3CCCN(c4ccc(C(F)(F)F)cc4)C3)c2)c1 [Example 155]
EC50 [1]: 235 nM

OCCc1ccccc1-c1ccnc(N[C@@H]2CCCC[C@H]2N[C@H]2CCCN(c3ccc(C(F)(F)F)cc3)C2)c1 [Example 156]
EC50 [1]: 50 nM

FC(F)(F)c1ccc(N2CCC[C@H](N[C@@H]3CCCC[C@H]3Nc3cc(-c4ccc5scnc5c4)ccn3)C2)cc1 [Example 157]
EC50 [1]: 194 nM

FC(F)(F)c1ccc(N2CCC[C@H](N[C@@H]3CCCC[C@H]3Nc3cc(-c4cccc(-n5cccn5)c4)ccn3)C2)cc1 [Example 158]
EC50 [1]: 53 nM

CN(C)c1cccc(-c2ccnc(N[C@@H]3CCCC[C@H]3N[C@H]3CCCN(c4ccc(C(F)(F)F)cc4)C3)c2)c1 [Example 159]
EC50 [1]: 239 nM

N#Cc1cccc(-c2cnc(N[C@@H]3CCCC[C@H]3N[C@H]3CCCN(c4ccc(C(F)(F)F)cc4)C3)o2)c1 [Example 160]
EC50 [1]: 548 nM

OCCC#Cc1ccnc(N[C@@H]2CCCC[C@H]2N[C@H]2CCCN(c3ccc(C(F)(F)F)cc3)C2)c1 [Example 161]
EC50 [1]: 31 nM

CC(C)(O)C#Cc1ccnc(N[C@@H]2CCCC[C@H]2N[C@H]2CCCN(c3ccc(C(F)(F)F)cc3)C2)c1 [Example 162]
EC50 [1]: 546 nM

OCC#Cc1ccnc(N[C@@H]2CCCC[C@H]2N[C@H]2CCCN(c3ccc(C(F)(F)F)cc3)C2)c1 [Example 163]
EC50 [1]: 74 nM

FC(F)(F)c1ccc(N2CCC[C@H](N[C@@H]3CCCC[C@H]3Nc3cc(-c4cccc(N5CCCC5)c4)ccn3)C2)cc1 [Example 164]
EC50 [1]: 104 nM

OCc1cc(-c2ccnc(N[C@@H]3CCCC[C@H]3N[C@H]3CCCN(c4ccc(C(F)(F)F)cc4)C3)c2)ccc1F [Example 165]
EC50 [1]: 38 nM

OCCCC#Cc1ccnc(N[C@@H]2CCCC[C@H]2N[C@H]2CCCN(c3ccc(C(F)(F)F)cc3)C2)c1 [Example 166]
EC50 [1]: 17 nM

C[C@H](O)c1cccc(-c2ccnc(N[C@@H]3CCCC[C@H]3N[C@H]3CCCN(c4ccc(C(F)(F)F)cc4)C3)c2)c1 [Example 167]
EC50 [1]: 6 nM

C[C@@H](O)c1cccc(-c2ccnc(N[C@@H]3CCCC[C@H]3N[C@H]3CCCN(c4ccc(C(F)(F)F)cc4)C3)c2)c1 [Example 168]
EC50 [1]: 14 nM

CC(C)(C)OC(=O)Nc1cccc(-c2cnc(N[C@@H]3CCCC[C@H]3N[C@H]3CCCN(c4ccc(C(F)(F)F)cc4)C3)o2)c1 [Example 169]
EC50 [1]: 32 nM

CC(C)(O)c1cccc(-c2cnc(N[C@@H]3CCCC[C@H]3N[C@H]3CCCN(c4ccc(C(F)(F)F)cc4)C3)o2)c1 [Example 170]
EC50 [1]: 48 nM

FC(F)(F)c1ccc(N2CCC[C@H](N[C@@H]3CCCC[C@H]3Nc3cc(-c4cn[nH]c4)ccn3)C2)cc1 [Example 171]
EC50 [1]: 142 nM

Nc1cccc(-c2cnc(N[C@@H]3CCCC[C@H]3N[C@H]3CCCN(c4ccc(C(F)(F)F)cc4)C3)o2)c1 [Example 172]
EC50 [1]: 5 nM

COC(=O)N(C)c1cccc(-c2ccnc(N[C@@H]3CCCC[C@H]3N[C@H]3CCCN(c4ccc(C(F)(F)F)cc4)C3)c2)c1 [Example 173]
EC50 [1]: 920 nM

CC(=O)N(C)c1cccc(-c2ccnc(N[C@@H]3CCCC[C@H]3N[C@H]3CCCN(c4ccc(C(F)(F)F)cc4)C3)c2)c1 [Example 174]
EC50 [1]: 363 nM

CNC(=O)Cc1cccc(-c2ccnc(N[C@@H]3CCCC[C@H]3N[C@H]3CCCN(c4ccc(C(F)(F)F)cc4)C3)c2)c1 [Example 175]
EC50 [1]: 2 nM

FC(F)(F)c1ccc(N2CCC[C@H](N[C@@H]3CCCC[C@H]3Nc3ncc(-c4ccccc4)cn3)C2)cc1 [Example 176]
EC50 [1]: 579 nM

FC(F)(F)Oc1cccc(-c2cnc(N[C@@H]3CCCC[C@H]3N[C@H]3CCCN(c4ccc(C(F)(F)F)cc4)C3)nc2)c1 [Example 177]
EC50 [1]: 781 nM

NC(=O)c1cccc(-c2cnc(N[C@@H]3CCCC[C@H]3N[C@H]3C[C@@H]4C[C@H]3N(c3ccc(C(F)(F)F)cc3)C4)o2)c1 [Example 178]
EC50 [1]: 2 nM

NC(=O)c1cccc(-c2ccnc(N[C@@H]3CCCC[C@H]3N[C@H]3C[C@@H]4C[C@H]3N(c3ccc(C(F)(F)F)cc3)C4)c2)c1 [Example 179]
EC50 [1]: 7 nM

FC(F)(F)c1ccc(N2CCC[C@H](N[C@@H]3CCCC[C@H]3NC3=NOC(c4ccccc4)C3)C2)cc1 (stereo partly shown) [Example 180]
EC50 [1]: 54 nM

FC(F)(F)Oc1ccc(-c2cnc(N[C@@H]3CCCC[C@H]3N[C@H]3C[C@@H]4C[C@H]3N(c3ccc(C(F)(F)F)cc3)C4)o2)cc1 [Example 181]
EC50 [1]: 126 nM

FC(F)(F)c1ccc(N2CCC[C@H](N[C@@H]3CCCC[C@H]3Nc3ncc(Br)cn3)C2)cc1 [Example 182]
EC50 [1]: 258 nM

FC(F)(F)c1ccc(N2CCC[C@H](N[C@@H]3CCCC[C@H]3Nc3cc(-c4cccc(C5CCCN5)c4)ccn3)C2)cc1 (stereo partly shown) [Example 183]
EC50 [1]: 153 nM

CCOC(=O)c1cnc(N[C@@H]2CCCC[C@H]2N[C@H]2CCCN(c3ccc(C(F)(F)F)cc3)C2)o1 [Example 184, ethyl 2-(((1R,2R)-2-(((S)-1-(4-(trifluoromethyl)phenyl)piperidin-3-yl)amino)cyclohexyl)amino)oxazole-5-carboxylate]
EC50 [1]: 764 nM

CCCC#Cc1ccnc(N[C@@H]2CCCC[C@H]2N[C@H]2CCCN(c3ccc(C(F)(F)F)cc3)C2)c1 [Example 185]
EC50 [1]: 218 nM

OCCCCCc1ccnc(N[C@@H]2CCCC[C@H]2N[C@H]2CCCN(c3ccc(C(F)(F)F)cc3)C2)c1 [Example 186]
EC50 [1]: 115 nM

OCCCCc1ccnc(N[C@@H]2CCCC[C@H]2N[C@H]2CCCN(c3ccc(C(F)(F)F)cc3)C2)c1 [Example 187]
EC50 [1]: 42 nM

Cn1cc(-c2ccnc(N[C@@H]3CCCC[C@H]3N[C@H]3CCCN(c4ccc(C(F)(F)F)cc4)C3)c2)cn1 [Example 188]
EC50 [1]: 1040 nM

CC(C)(O)Cc1cccc(-c2ccnc(N[C@@H]3CCCC[C@H]3N[C@H]3CCCN(c4ccc(C(F)(F)F)cc4)C3)c2)c1 [Example 189]
EC50 [1]: 27 nM

FC(F)(F)c1ccc(N2CCC[C@H](N[C@@H]3CCCC[C@H]3Nc3cc(-n4cccc4)ccn3)C2)cc1 [Example 190]
EC50 [1]: 51 nM

FC(F)(F)c1ccc(N2CCC[C@H](N[C@@H]3CCCC[C@H]3Nc3cc(-c4ccncc4)ccn3)C2)cc1 [Example 191]
EC50 [1]: 48 nM

N#Cc1ccc(N[C@@H]2CCCC[C@H]2N[C@H]2CCCN(c3ccc(C(F)(F)F)cc3)C2)nc1 [Example 192]
EC50 [1]: 284 nM

N#Cc1cnc(N[C@@H]2CCCC[C@H]2N[C@H]2CCCN(c3ccc(C(F)(F)F)cc3)C2)s1 [Example 193]
EC50 [1]: 70 nM

N#Cc1ccnc(N[C@@H]2CCCC[C@H]2N[C@H]2CCCN(c3ccc(C(F)(F)F)cc3)C2)n1 [Example 194]
EC50 [1]: 606 nM

FC(F)(F)c1ccc(N2CCC[C@H](N[C@@H]3CCCC[C@H]3Nc3cc4ccccc4cn3)C2)cc1 [Example 195]
EC50 [1]: 48 nM

FC(F)(F)c1ccc(N2CCC[C@H](N[C@@H]3CCCC[C@H]3Nc3ncc(Cl)cn3)C2)cc1 [Example 196]
EC50 [1]: 809 nM

FC(F)(F)Oc1ccccc1-c1cnc(N[C@@H]2CCCC[C@H]2N[C@H]2CCCN(c3ccc(C(F)(F)F)cc3)C2)o1 [Example 197]
EC50 [1]: 12 nM

FC(F)(F)c1ccc(N2CCC[C@H](N[C@@H]3CCCC[C@H]3Nc3cc(-c4cc[nH]c4)ccn3)C2)cc1 [Example 198]
EC50 [1]: 67 nM

C[C@]1(N[C@@H]2CCCC[C@H]2Nc2ncc(-c3cccc(C(N)=O)c3)o2)CCCN(c2ccc(C#N)cc2)C1 [Example 199]
EC50 (TABLE 2, R2 is Phenyl-CN): 2 nM

COC(=O)Nc1cccc(-c2ccnc(N[C@@H]3CCCC[C@H]3N[C@H]3CCCN(c4ccc(C#N)cc4)C3)c2)c1 [Example 200]
EC50 (TABLE 2, R2 is Phenyl-CN): 3 nM
